Assay results reported in US7598234B2, “Steroid derived antibiotics” (Brigham Young University, priority 1998, dated 2009).
Converted amounts (≈) assume the structure as drawn.

Legend:
[1] = system: E. coli (ATCC 25922); assay: MIC and MBC measurement with E. coli (ATCC 25922); format: cell-based, Escherichia coli
In short: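 Growth inhibition read as absorbance at 760 nm after 24 h stationary culture at 37 °C in tryptic soy broth containing varied compound levels. Turbidity-free samples were plated on TSA overnight and CFU/mL compared with the starting inoculum for bactericidal endpoint; antibiotic co-additions followed compound by 15 min.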

[2] = system: Pseudomonas aeruginosa (ATCC 27853); assay: Sensitization to erythromycin, Pseudomonas aeruginosa (ATCC 27853); format: cell-based; settings: for MIC: concentration required to lower the MIC of erythromycin from 240 μg/mL to 5 μg/mL / MBC (with erythromycin): Table 7, P. aureginosa (ATCC 27853); for MBC (with erythromycin): erythromycin sensitization; for FIC / concentration required to inhibit bacterial growth with antibiotic: Table 11, Pseudomonas aeruginosa ATCC 27853; for FIC: erythromycin (by order); for concentration required to inhibit bacterial growth with antibiotic: erythromycin (by order) at 0.5, 1.0 or 3.0 μg/mL
In short: (§1)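 Sensitization measured by the cholic acid derivative concentration inhibiting growth when combined with 0.5, 1.0 or 3.0 μg/mL erythromycin or novobiocin, antibiotic added 15 min after derivative. Incubation 24 h at 37 °C without shaking in TSB; growth by absorbance at 760 nm with CFU plating of non-turbid tubes; synergy expressed as FIC.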

[3] = system: Pseudomonas aeruginosa (ATCC 27853); assay: MIC and MBC measurement with Pseudomonas aeruginosa (ATCC 27853); format: cell-based
In short: (§2)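 Cholic acid derivatives, dissolved as HCl salts in sterile water, were tested in TSB tubes over a concentration series and incubated without agitation for 24 hours at 37° C. Absorption at 760 nm marked growth, while surviving CFU in turbidity-free tubes, plated on TSA overnight, were compared with inoculum counts.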

[4] = system: Pseudomonas aeruginosa (ATCC 27853); assay: Sensitization to novobiocin, Pseudomonas aeruginosa (ATCC 27853); format: cell-based; settings: for MIC: concentration required to lower the MIC of novobiocin from >500 μg/mL to 1 μg/mL: Table 8, P. aureginosa (ATCC 27853); for FIC / concentration required to inhibit bacterial growth with antibiotic: Table 12, Pseudomonas aeruginosa ATCC 27853; for FIC: novobiocin (by order); for concentration required to inhibit bacterial growth with antibiotic: novobiocin (by order) at 0.5, 1.0 or 3.0 μg/mL
In short: as §1

[5] = system: Salmonella typhimurium ATCC 14028; assay: Growth inhibition and FIC with novobiocin, Salmonella typhimurium ATCC 14028; format: cell-based; settings: for FIC: Table 12, novobiocin (by order); for concentration required to inhibit bacterial growth with antibiotic: Table 12, novobiocin (by order) at 0.5, 1.0 or 3.0 μg/mL
Method: (§3) Alternatively, “fractional inhibitory concentration (FIC)” is also useful for determination of synergy between the compounds of the invention, or the compounds in combination with known antibiotics. FICs can be performed by checkerboard titrations of compounds in one dimension of a microtiter plate, and of antibiotics in the other dimension, for example. The FIC is calculated by looking at the impact of one antibiotic on the MIC of the other and vice versa. […] Preferably, an FIC of less than 0.5 is obtained for synergism. As used herein, FIC can be determined as follows:
(§4) Aliquots of 1 mL of the suspension were added to test tubes containing 1 mL TSB and incrementally varied concentrations of cholic acid derivatives and/or erythromycin or novobiocin. In the sensitization experiments, erythromycin or novobiocin were added 15 minutes later than the cholic acid derivatives. The samples were subjected to stationary incubation at 37° C. for 24 hours. Sample turbidity was determined by measuring absorption at 760 nm (HP 8453 UV-Visible Chemstation, Hewlett Packard). Additionally, an alliquot from each of the samples showing no measurable turbidity was subcultured on TSA plates (alliquots were diluted to provide fewer than 300 CFU). Colonies that grew on the subculture after overnight incubation were counted and the number of CFU/mL in the samples were calculated. The calculated values were compared to the number of CFU/mL in the original inoculum.
(§5) To measure permeabilization, the FIC values for compounds 1, 2, 5, 106, 10, 112, 133, and 134 with erythromycin, novobiocin, and rifampicin were determined. Concentrations of 0.5, 1.0 or 3.0 μg/mL of these antibiotics were used, and the concentrations of the cholic acid derivatives required to inhibit bacterial growth of Gram-negative strains were determined.

[6] = system: Streptococcus pyrogenes ATCC 19615; assay: MIC and MBC measurement with Streptococcus pyogenes ATCC 19615; format: cell-based; settings: Table 10
Text: (§6) General: Microorganisms. Reference strains were purchased from the American Type Culture Collection (Rockville, Md.) or Bactrol disks from Difeo Laboratories (Detroit, Mich.). The following specific ATCC strains were used: 10798 Escherichia coli, 25922 Escherichia coli, 13883 Klebsiella pneumoniae, 27853 Pseudomonas aeruginosa, 14028 Salmonella typhimurium, 29212 Enterococcus faecalis, 25923 Staphylococcus aureus, 19615 Streptococcus pyogenes, and 90028 Candida albicans. Bacterial strains were maintained on Mueller-Hinton agar plates, and Candida albicans was maintained on Sabouraud Dextrose agar plates.
(§7) Tryptic soy broth (TSB) was made by dissolving 27.5 grams of tryptic soy broth without dextrose (DIFCO Laboratories) in 1 liter of deionized water and sterilizing at 121° C. for 15 minutes. Solid agar (TSA) plates were made by dissolving 6.4 grams of tryptic soy broth and 12 grams of agar (purified grade, Fischer Scientific) in 800 mL of deionized water and sterilizing at 121° C. for 20 minutes. Aliquots (20 mL) of the homogeneous solution were then poured in sterile plastic petri dishes (100×15 mm, Fisher Scientific). Solutions of compounds were made by dissolving the HCl salt of the respective compound into an appropriate amount of deionized and sterilized water followed by microfiltration.
as §4

[7] = system: E. coli (ATCC 10798); assay: Sensitization to erythromycin (concentration lowering the MIC of erythromycin), E. coli (ATCC 10798); format: cell-based, Escherichia coli; settings: for MIC: concentration required to lower the MIC of erythromycin from 70 μg/mL to 1 μg/mL / MBC (with erythromycin): Table 2, E. coli (ATCC 10798); for MBC (with erythromycin): erythromycin sensitization; for (a) Concentration required to lower the MIC of erythromycin from 70 to 1 μg/mL / (b) MBC with 1 μg/mL erythromycin / FIC values with erythromycin: Table 9, Escherichia coli (ATCC 10798)
[8] = system: Klebsiella pneumonia ATCC 13883; assay: MIC and MBC measurement with Klebsiella pneumoniae ATCC 13883; format: cell-based; settings: Table 10
In short: as §2

[9] = Method: Minimum inhibition concentrations (MIC) and minimum hemolytic concentrations (MHC) were measured as described in Li et al., Antimicrob. Agents. Chemother., 1999, 43, 1347.
[10] = system: Escherichia coli ATCC 25922; assay: Growth inhibition and FIC with rifampicin, Escherichia coli ATCC 25922; format: cell-based; settings: for FIC: Table 13, rifampicin (by order); for concentration required to inhibit bacterial growth with antibiotic: Table 13, rifampicin (by order) at 0.5, 1.0 or 3.0 μg/mL
Method: as §3, §4, §5

[11] = system: Enterococcus faecalis ATCC 29212; assay: MIC and MBC measurement with Enterococcus faecalis ATCC 29212; format: cell-based; settings: Table 10
Text: as §6, §7, §4

[12] = Table 10, Escherichia coli ATCC 25922
[13] = Table 6, P. aureginosa (ATCC 27853)
[14] = Table 10, Pseudomonas aeruginosa ATCC 27853

Row | Structure (SMILES) | MBC ([1]; Table 4, E. coli (ATCC 25922)) | MBC [1, 12] | MIC [1, 12] | FIC [2] | concentration required to inhibit bacterial growth with antibiotic [2] | MBC [3, 14] | MIC [3, 14] | FIC [4] | concentration required to inhibit bacterial growth with antibiotic [4] | FIC [5] | concentration required to inhibit bacterial growth with antibiotic [5] | MBC [6] | MIC [6] | MBC [8] | MIC [8] | MHC [9] | FIC [10] | concentration required to inhibit bacterial growth with antibiotic [10] | MBC [11] | MIC [11] | other results
1 | C[C@H](CCCN(C)Cc1ccccc1)[C@H]1CC[C@H]2[C@@H]3[C@H](OCCN)C[C@@H]4C[C@H](OCCN)CC[C@]4(C)[C@H]3C[C@H](OCCN)[C@]12C [Compound 1] | 40 µg/mL (≈ 63.8 µM) | 22 µg/mL (≈ 35.1 µM) | 22 µg/mL (≈ 35.1 µM) | 0.29 | 6.6 µg/mL | 38 µg/mL (≈ 60.6 µM) | 26 µg/mL (≈ 41.5 µM) | 0.16 | 3.9 µg/mL | 0.22 | 4.4 µg/mL | 4.4 µg/mL (≈ 7.02 µM) | 3.0 µg/mL (≈ 4.78 µM) | >36 µg/mL | 24 µg/mL (≈ 38.3 µM) | 78 µg/mL | 0.099 | 0.74 µg/mL | 50 µg/mL (≈ 79.7 µM) | 4.9 µg/mL (≈ 7.82 µM) | MIC ([1]; Table 4, E. coli (ATCC 25922)): 25 µg/mL (≈ 39.9 µM); MIC: concentration required to lower the MIC of erythromycin from 240 μg/mL to 5 μg/mL [2]: 8 µg/mL; MBC (with erythromycin) [2]: 45 µg/mL; MBC [3, 13]: >50 µg/mL; MIC [3, 13]: 15 µg/mL (≈ 23.9 µM); MIC: concentration required to lower the MIC of novobiocin from >500 μg/mL to 1 μg/mL [4]: 6 µg/mL; MIC: concentration required to lower the MIC of erythromycin from 70 μg/mL to 1 μg/mL [7]: 2 µg/mL; MBC (with erythromycin) [7]: 20 µg/mL
2 | C[C@H](CCCN(C)Cc1ccccc1)[C@H]1CC[C@H]2[C@@H]3[C@H](OCCCN)C[C@@H]4C[C@H](OCCCN)CC[C@]4(C)[C@H]3C[C@H](OCCCN)[C@]12C [Compound 2] | 20 µg/mL (≈ 29.9 µM) | 6.8 µg/mL (≈ 10.2 µM) | 5.1 µg/mL (≈ 7.62 µM) | 0.25 | 2.4 µg/mL | >17 µg/mL | 11 µg/mL (≈ 16.4 µM) | 0.27 | 2.9 µg/mL | 0.36 | 4.5 µg/mL | 2.3 µg/mL (≈ 3.44 µM) | 2.0 µg/mL (≈ 2.99 µM) | 17 µg/mL (≈ 25.4 µM) | 14 µg/mL (≈ 20.9 µM) | 58 µg/mL | 0.22 | 0.80 µg/mL | 19 µg/mL (≈ 28.4 µM) | 3.4 µg/mL (≈ 5.08 µM) | MIC ([1]; Table 4, E. coli (ATCC 25922)): 10 µg/mL (≈ 14.9 µM); MIC: concentration required to lower the MIC of erythromycin from 240 μg/mL to 5 μg/mL [2]: 4 µg/mL; MBC (with erythromycin) [2]: 25 µg/mL; MBC [3, 13]: 40 µg/mL (≈ 59.8 µM); MIC [3, 13]: 9 µg/mL (≈ 13.5 µM); MIC: concentration required to lower the MIC of novobiocin from >500 μg/mL to 1 μg/mL [4]: 4 µg/mL; MIC: concentration required to lower the MIC of erythromycin from 70 μg/mL to 1 μg/mL [7]: 1 µg/mL; MBC (with erythromycin) [7]: 10 µg/mL
3 | C[C@]12CC[C@@H](OCCCN)C[C@H]1C[C@@H](OCCCN)[C@@H]1[C@@H]2C[C@H](OCCCN)[C@]2(C)[C@@H](O)CC[C@@H]12 [Compound 106] | – | 90 µg/mL (≈ 182 µM) | 80 µg/mL (≈ 161 µM) | 0.22 | 16 µg/mL | 97 µg/mL (≈ 196 µM) | 85 µg/mL (≈ 171 µM) | 0.36 | 30 µg/mL | 0.094 | 8.4 µg/mL | 37 µg/mL (≈ 74.6 µM) | 18 µg/mL (≈ 36.3 µM) | 100 µg/mL (≈ 202 µM) | >100 µg/mL | >100 µg/mL | 0.12 | 4.2 µg/mL | >100 µg/mL | 12 µg/mL (≈ 24.2 µM) | (a) Concentration required to lower the MIC of erythromycin from 70 to 1 μg/mL [7]: 30 µg/mL; (b) MBC with 1 μg/mL erythromycin [7]: 160 µg/mL; FIC values with erythromycin [7]: 0.23
4 | CCCOCCC[C@@H](C)[C@H]1CC[C@H]2[C@@H]3[C@H](OCCCN)C[C@@H]4C[C@H](OCCCN)CC[C@]4(C)[C@H]3C[C@H](OCCCN)[C@]12C [Compound 112] | – | 7.4 µg/mL (≈ 12.2 µM) | 6.6 µg/mL (≈ 10.9 µM) | 0.59 | 1.0 µg/mL | 6.4 µg/mL (≈ 10.5 µM) | 4.6 µg/mL (≈ 7.57 µM) | 0.17 | 0.72 µg/mL | 0.015 | 0.39 µg/mL | 3.0 µg/mL (≈ 4.93 µM) | 2.4 µg/mL (≈ 3.95 µM) | 27 µg/mL (≈ 44.4 µM) | 23 µg/mL (≈ 37.8 µM) | 5.9 µg/mL | 0.19 | 0.81 µg/mL | 4.7 µg/mL (≈ 7.73 µM) | 3.1 µg/mL (≈ 5.1 µM) | (a) Concentration required to lower the MIC of erythromycin from 70 to 1 μg/mL [7]: 0.4 µg/mL; (b) MBC with 1 μg/mL erythromycin [7]: 4.0 µg/mL; FIC values with erythromycin [7]: 0.048
